Legend:
[1] = test system: diabetic rats; conditions: cited from earlier work
[2] = Ocular pharmacokinetic study in monkey, intravitreal injection on Day 1, 29 and 57; type: in vivo, cynomolgus monkeys; conditions: monkeys; IVT 5 μg/eye Day 1, 29, 57; calculated post third dose, sampling interval Day 57-99
[3] = solution for injection; cited from earlier work

N=C(N)c1ccc(CNC(=O)c2cnn(Cc3ccccc3)c2)cc1 [ASP-440]
Retinal blood flow abnormalities [1]: ameliorated | Retinal vascular permeability [1]: ameliorated

CCOc1ccc(C[C@@H](NC(=O)c2ccccc2)C(=O)N[C@@H](Cc2ccccc2)C(=O)NCc2ccc(CN)cc2)cc1.Cl [Compound 1, N-[(R)-1-[(S)-1-(4-Aminomethyl-benzylcarbamoyl)-2-phenyl-ethylcarbamoyl]-2-(4-ethoxy-phenyl)-ethyl]-benzamide hydrochloride]
AUC0-last in Ocular Tissue, Aqueous Humor [2]: 1,410 ng · h/mL or ng · h/g | AUC0-last in Ocular Tissue, Choroid-Tissue [2]: 32,200 ng · h/mL or ng · h/g | AUC0-last in Ocular Tissue, Retina- Tissue [2]: 166,000 ng · h/mL or ng · h/g | AUC0-last in Ocular Tissue, Vitreous Humor [2]: 1,110 ng · h/mL or ng · h/g

Ecallantide
Safety in medical use [3]: risk of anaphylactic reactions
